Reference: publication PMC6366430 (Journal of Enzyme Inhibition and Medicinal Chemistry, 2019)
Where “and” joins values, the source holds several entries; their conditions need not be identical. Identical values can stand only once. Like-named read-outs stand apart in the source and are kept apart here.

Key:
AChE from electric eel = target: T1, AChE from electric eel (Electrophorus electricus, UniProt O42275); assay: biochemical; conditions: for IC50: AChE from electric eel, mean ± SD of triplicate independent experiments
T1 construct: purchased Sigma-Aldrich
T1 sequence (O42275 24-633): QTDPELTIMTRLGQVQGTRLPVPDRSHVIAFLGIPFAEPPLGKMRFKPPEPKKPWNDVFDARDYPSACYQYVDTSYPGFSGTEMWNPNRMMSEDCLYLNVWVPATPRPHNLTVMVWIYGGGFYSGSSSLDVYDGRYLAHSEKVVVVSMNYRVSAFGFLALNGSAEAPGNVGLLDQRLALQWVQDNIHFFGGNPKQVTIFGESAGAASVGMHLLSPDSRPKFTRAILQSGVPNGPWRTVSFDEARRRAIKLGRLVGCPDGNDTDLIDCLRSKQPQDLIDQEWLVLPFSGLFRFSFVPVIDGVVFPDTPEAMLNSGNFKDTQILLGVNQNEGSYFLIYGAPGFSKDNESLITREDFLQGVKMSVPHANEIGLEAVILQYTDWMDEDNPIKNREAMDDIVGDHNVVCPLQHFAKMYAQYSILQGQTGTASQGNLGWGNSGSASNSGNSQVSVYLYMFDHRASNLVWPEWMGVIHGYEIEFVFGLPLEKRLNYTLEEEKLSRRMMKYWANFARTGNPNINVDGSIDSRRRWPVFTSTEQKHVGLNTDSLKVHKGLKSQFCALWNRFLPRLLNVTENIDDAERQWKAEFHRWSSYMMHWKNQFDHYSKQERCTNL
Description: (§1) Activity of enzymes and inhibition kinetics were determined using a Bio-Rad iMark microplate reader based on a modification of the Ellman method.[14] ^, [15] Compounds were dissolved in DMSO. The assay solution which contained 60 µL 5,5′-Dithiobis(2-nitrobenzoic acid) (DTNB) at 1.1 mM, 30 µL AChE/BuChE at 0.20 U/mL (initial concentration) and 150 µL tested compound solution with different concentrations. Absorbance was then recorded at λ = 415 nm. […]
(§2) serially diluted. Negative (without treatment) and vehicle (DMSO, final concentration 0.2% v/v for AChE and 0.8% v/v for BuChE) controls were kept for reference.
(§3) Following, there were added 60 μL of 5,5′-Dithiobis(2-nitrobenzoic acid) (DTNB, Ellman's reagent) at 1.1 mM and 30 μL of electric eel acetylcholinesterase (EeAChE) or equine serum butyrylcholinesterase (EqBuChE) at 0.20 U/mL in the presence of 1 mg/mL bovine serum albumin (BSA). Absorbance was then recorded using an iMark plate reader (Bio-Rad) equipped with a λ = 415 nm light filter and this measure used as […]
(§4) acetylthiocholine iodide (ACTI) or S-butyrylthiocholine iodide (BCTI) were added and the absorbance recorded after a 10-minute incubation at 30 °C at λ = 415 nm for 3 times within 30 seconds. Enzyme activity was calculated as percentage of untreated control discounting the blank reference. The final inhibitor concentration ranged from 100 – 0.00001 μM for AChE (dillution factor = 10) and from 400 – 0.1 μM for BuChE (dillution factor = 4). IC50 values were calculated on Graphpad Prism 7.0 using the non-linear regression model for dose-response inhibition. […]

BuChE from horse serum = target: T2, BuChE from horse serum (Equus caballus, UniProt P81908); assay: biochemical; conditions: mean ± SD of triplicate independent experiments
T2 construct: equine serum butyrylcholinesterase (EqBuChE); from tissue; host or cells: equine (horse) serum
T2 sequence (P81908 whole entry): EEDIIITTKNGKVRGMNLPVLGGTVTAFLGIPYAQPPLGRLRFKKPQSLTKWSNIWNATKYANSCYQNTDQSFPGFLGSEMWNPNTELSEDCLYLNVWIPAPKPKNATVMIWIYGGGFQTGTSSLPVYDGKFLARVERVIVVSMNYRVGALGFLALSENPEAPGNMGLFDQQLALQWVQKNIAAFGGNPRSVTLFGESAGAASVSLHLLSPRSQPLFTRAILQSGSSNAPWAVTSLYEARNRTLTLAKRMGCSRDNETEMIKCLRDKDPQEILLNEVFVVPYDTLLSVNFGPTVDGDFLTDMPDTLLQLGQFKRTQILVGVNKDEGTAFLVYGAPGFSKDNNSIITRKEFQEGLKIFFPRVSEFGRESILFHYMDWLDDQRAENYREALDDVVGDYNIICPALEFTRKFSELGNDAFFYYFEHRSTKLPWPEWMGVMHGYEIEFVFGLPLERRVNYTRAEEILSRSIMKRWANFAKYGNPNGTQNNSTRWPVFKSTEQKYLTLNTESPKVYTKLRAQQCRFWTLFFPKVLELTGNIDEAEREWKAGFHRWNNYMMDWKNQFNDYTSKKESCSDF
Description: as §1, §2, §3, §4

[1] = system: N2a cells (neuroblastoma); assay: N2a neuroblastoma cell viability, MTT assay; assay type: cell-based, murine; conditions: for Neuroblastoma cell viability, MTT reduction relative to control cells, Mean ± SD: 48 h; for cytotoxicity against N2a cells (in words): 48 h incubation, maximum tested concentration 50 µM
Description: N2a cells were cultured in Dulbecco’s modified Eagle’s medium supplemented with 10% fetal bovine serum and 0.1% gentamicin in a 5% CO2 atmosphere. N2a cells were transferred to a 96-well plate (∼10,000 cells/cm^2) and incubated for 24 h, before treatment with the compounds at 10 or 50 µM. Cell viability was evaluated by MTT (3-[4,5-dimethylthiazol-2-yl]-2,5-diphenyl tetrazolium bromide) assay.
Murine neuroblastoma cell (N2a) culture and cell viability assay.
N2a cells were cultured in Dulbecco’s modified Eagle’s medium supplemented with 10% fetal bovine serum and 0.1% gentamicin in a 5% CO2 atmosphere. N2a cells were transferred to a 96-well plate (~10,000 cells/cm2) and incubated for 24 h, before treatment with the compounds at 10 or 50 µM. After being treated, cells were grown for 48 hours. Cell viability was evaluated by MTT (3-[4,5-dimethylthiazol-2-yl]-2,5-diphenyl tetrazolium bromide) assay. MTT was added to a final concentration of 0.5 mg/mL into the wells (samples and controls), and the plates were incubated for 4 h at 37 °C. After, all the media was removed and produced formazan crystals were solubilized with DMSO and quantified by reading the OD at 570 nm in a 96-well plate reader (SpectraMax® Paradigm®, Molecular Devices). Means and standard deviations were calculated from triplicates.

[2] = target: T3, electric eel acetylcholinesterase (EeAChE) (Electrophorus electricus, UniProt O42275); assay: biochemical; assay type: biochemical; conditions: for inhibition type in AChE: Lineweaver–Burk; for Ki’ (non-competitive inhibition constant) on AChE / Ki: ± SD of triplicate; for Ki: read-out: Ki (competitive inhibition constant) on AChE
T3 construct: purchased Sigma-Aldrich
T3 sequence (O42275 24-633): as the sequence (O42275 24-633) above
Description: as §1
(§5) The enzymatic kinetic of cholinesterase inhibition was determined according to adapted Ellman's method1. All of the solution were prepared in 0.02 M tris-HCl buffer (pH = 7.5), stock solutions of test compounds prepared in DMSO (50 mM), and the experiment conducted in triplicate. To a flat-bottom 96-well transparent plate were added 150μL of treatment solutions with inhibitors 4d and 6a at two different concentrations (Table 2) distributed in eight sets of triplicates each. Eight sets of untreated triplicates were used as negative control. Following, there were added 60 μL of 5,5′-Dithiobis(2-nitrobenzoic acid) (DTNB, Ellman's reagent) at 1.1 mM and 30 μL of electric eel acetylcholinesterase (EeAChE) or equine serum butyrylcholinesterase (EqBuChE) at 0.20 U/mL in presence of 1 mg/mL bovine serum albumin (BSA).
(§6) Absorbance was then recorded using an iMark plate reader (Bio-Rad) equipped with a λ = 415 nm light filter and this measure used as a blank reference. After 10-minute incubation at room temperature, 24 μL of acetylthiocholine iodide (ACTI) or S- […]
(§7) the absorbance recorded after incubation for 0, 5, 10, 15 and 20 minutes at room temperature at λ = 415 nm. The Lineweaver–Burk reciprocal plots were obtained by […]
(§8) plotting a 1/velocity versus 1/[substrate] graph for two different inhibitor concentrations […]
(§9) behavior, in ways the region to where the curves converge determine the type of inhibition observed. Ki, Ki' (competitive and noncompetitive inhibition constants respectively), Km (Michaelis-Menten constant) and Vmax values were calculated with Graphpad Prism 7.0 using the non-linear regression models for enzyme kinetics - inhibiton and enzyme kinects - substrate vs. velocity.

[3] = target: T4, equine serum butyrylcholinesterase (EqBuChE) (Equus caballus, UniProt P81908); assay: biochemical; assay type: biochemical; conditions: for inhibition type in BuChE: Lineweaver–Burk; for Ki’ (non-competitive inhibition constant) on BuChE / Ki: ± SD of triplicate; for Ki: read-out: Ki (competitive inhibition constant) on BuChE
T4 construct: equine serum butyrylcholinesterase (EqBuChE); from tissue; host or cells: equine (horse) serum
T4 sequence (P81908 whole entry): as the sequence (P81908 whole entry) above
Description: as §1, §5, §6, §7, §8, §9

[4] = Ferric reducing ability of plasma (FRAP) antioxidant assay; conditions: 50 µM final concentration, 10 min at 37 °C
Description: A 0.5 ml solution of coumarin compounds in methanol (50 µM final concentration) was mixed with 4.5 ml of the FRAP reagent. After 10 min of incubation at 37 °C, absorbance at 593 nm was measured using methanol as blank.[20] ^, [21] The calibration curve was prepared with quercetin and the results expressed as: antioxidant index based on quercetine (Q) (mmol Q/mol). The analyses were performed in triplicate.
FRAP solution was freshly prepared by mixing 25 mL acetate buffer (0.30 M) at pH
3.6, 2.5 mL ferric chloride (20 mM) and 2.5 mL 2,4,6-tris(2-pyridyl)-s-triazine (10
mM). In a test tube containing 4.5 mL of FRAP reagent were added 0.5 mL of 500 µM
solutions of 4a-d, 5a-c and 6a-c (in methanol). After a 10-minute incubation at 37°C the
absorbance was recorded in a spectrophotometer at λ = 593 nm using methanol as blank
reference11. A standard curve was obtained by plotting the absorbance read after
of quercetin (Q) equivalent to mol of inhibitor (mmol Q/mol), obtained in triplicates.

SMILES	IC50 (AChE from electric eel; read-out: IC50(μM)±SD AChE)	SI (selectivity index, BuChE IC50/AChE IC50) (AChE from electric eel)	IC50 (BuChE from horse serum) [µM]	Neuroblastoma cell viability, MTT reduction relative to control cells, Mean ± SD ([1]; 10 µM) [%]	Neuroblastoma cell viability, MTT reduction relative to control cells, Mean ± SD ([1]; 50 µM) [%]	cytotoxicity against N2a cells (in words) [1]	FRAP value, antioxidant index based on quercetine (Q) [4] [mmol Q/mol]	further results
O=c1oc2cc(OCCN3CCCCC3)ccc2cc1Br [Compound 4a]	0.18 ± 0.009 µM	47	8.37 ± 0.167	89.16 ± 11.28	103.2 ± 13.68	not cytotoxic	–	–
O=c1oc2cc(OCCCN3CCCCC3)ccc2cc1Br [Compound 4b]	0.37 ± 0.008 µM	42	15.87 ± 0.007	93.34 ± 8.19	87.60 ± 4.39	–	–	–
O=c1oc2cc(OCCCCN3CCCCC3)ccc2cc1Br [Compound 4c]	0.55 ± 0.01 µM	9	4.92 ± 0.095	94.43 ± 4.28	88.88 ± 19.01	–	–	–
O=c1oc2cc(OCCCCCN3CCCCC3)ccc2cc1Br [Compound 4d]	0.14 µM and 0.15 µM	33	5.01 ± 0.253	80.10 ± 7.27	62.11 ± 10.09	–	–	inhibition type in AChE [2]: mixed-type inhibition; Vmax on AChE ([2]; inhibitor 0.1 μM): 2.209 ± 0.060 µM/min; Vmax on AChE ([2]; inhibitor 0.2 μM): 1.752 ± 0.198 µM/min; Ki’ (non-competitive inhibition constant) on AChE [2]: 157.350 ± 4.674 nM; Ki [2]: 21.3 ± 0.816 nM; inhibition type in BuChE [3]: mixed-type inhibition; Vmax on BuChE ([3]; inhibitor 0.1 μM (so in the source)): 5.791 ± 0.185 µM/min; Vmax on BuChE ([3]; inhibitor 0.2 μM (so in the source)): 4.669 ± 0.229 µM/min; Ki’ (non-competitive inhibition constant) on BuChE [3]: 6621 ± 322 nM; Ki [3]: 2130 ± 148 nM
O=c1oc2cc(OCCN3CCCCC3)ccc2cc1-c1ccccc1 [Compound 5a]	0.14 ± 0.009 µM	18	2.5 ± 0.177	98.37 ± 8.92	105.5 ± 14.93	not cytotoxic	–	–
O=c1oc2cc(OCCCN3CCCCC3)ccc2cc1-c1ccccc1 [Compound 5b]	0.24 ± 0.014 µM	8	1.86 ± 0.024	83.55 ± 6.58	57.06 ± 8.72	increase in toxicity	–	–
O=c1oc2cc(OCCCCCN3CCCCC3)ccc2cc1-c1ccccc1 [Compound 5c]	0.45 ± 0.036 µM	2	0.9 ± 0.001	117.4 ± 4.86	13.47 ± 1.19	increase in toxicity	–	–
CN(C)c1ccc(-c2cc3ccc(OCCN4CCCCC4)cc3oc2=O)cc1 [Compound 6a]	–	354	6.73 ± 0.04	92.15 ± 43.03	115.9 ± 4.28	not cytotoxic	7.49 ± 0.61	IC50 (AChE from electric eel; IC50(μM)±SD AChE): 0.02 ± 0.001 µM; Ki’ (noncompetitive) against AChE [2]: 10 nM; inhibition type in AChE [2]: mixed-type inhibition; Vmax on AChE ([2]; inhibitor 0.01 μM): 1.762 ± 0.128 µM/min; Vmax on AChE ([2]; inhibitor 0.03 μM): 1.254 ± 0.043 µM/min; Ki’ (non-competitive inhibition constant) on AChE [2]: 10.499 ± 0.438 nM; Ki [2]: 1.61 ± 0.066 nM; inhibition type in BuChE [3]: mixed-type inhibition; Vmax on BuChE ([3]; inhibitor 0.01 μM (so in the source)): 4.837 ± 0.399 µM/min; Vmax on BuChE ([3]; inhibitor 0.03 μM (so in the source)): 3.224 ± 0.284 µM/min; Ki’ (non-competitive inhibition constant) on BuChE [3]: 7376 ± 558 nM; Ki [3]: 2580 ± 236 nM
CN(C)c1ccc(-c2cc3ccc(OCCCN4CCCCC4)cc3oc2=O)cc1 [Compound 6b]	0.33 ± 0.011 µM	22	7.27 ± 0.273	84.11 ± 11.1	16.79 ± 8.41	increase in toxicity	2.42 ± 0.19	–
CN(C)c1ccc(-c2cc3ccc(OCCCCCN4CCCCC4)cc3oc2=O)cc1 [Compound 6c]	0.92 µM and 0.96 µM	4	3.85 ± 0.19	59.04 ± 8.21	10.09 ± 3.09	increase in toxicity	2.77 ± 0.00	–
